Measured values published in patent US20260167656A1, “PHOSPHORAMIDATE COMPOUNDS AND USES THEREOF” (ALLORION THERAPEUTICS INC, priority 2022, published 2026).

Columns and labels:
[1] = system: non-small cell lung cancer cell line H460; test: H460 proliferation assay in the presence of 3 uM ASP9521 (AKR1C3 specific inhibitor); assay type: cell-based, human; conditions: H460 cells, CellTiter-Glo, 72 hours, in the presence of 3 uM ASP9521 added 4 hours prior to compounds; read-out: CTG H460: Avg IC50 (nM) [Assay Condition: ASP9521]
Method in brief: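 H460 cells pre-incubated 24 h, then exposed to compounds for 72 h at 37 °C, 5% CO2. Viability read by CellTiter-Glo. ASP9521 (3 uM, AKR1C3 inhibitor) added 4 h before compounds.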

[2] = system: non-small cell lung cancer cell line H460; test: In vitro human cancer cell line cytotoxicity (proliferation) assay in H460, CellTiter-Glo, 72 hours; assay type: cell-based; conditions: DMSO condition (no AKR1C3 inhibitor), read-out: CTG H460: Avg IC50 (nM) [Assay Condition: DMSO]
Method in brief: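 H460 cells were seeded at 3×10^3 per well and grown 24 h at 37 °C, 5% CO2 before compound addition from 10 mM DMSO stocks. After 72 h further incubation, viability was measured by CellTiter-Glo, and IC50 values in nM were derived from the proliferation data.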

[3] = Homo sapiens, NCI-H460, 72 h, H460 cells

Compound | IC50 [1] [nM] | IC50 ([2]; H460 cells) [nM] | IC50 [2, 3] [nM] | IC50 ([2]; Homo sapiens, NCI-H460, H460 cells) [nM]
O=[N+]([O-])c1ccc2c(c1Oc1ccc(-c3ccncc3)cc1)CCC2OP(=O)(N1CC1)N1CC1 (stereo not drawn) [Example 62] | 6100 | ≥ 100 | – | –
O=[N+]([O-])c1ccc2c(c1Oc1ccc(-c3ccncc3)cc1)CCC2OP(=O)(N1CC1)N1CC1 (stereo not drawn) [Example 63] | 7430 | 10 to 50 | – | –
O=C(c1cccc(Oc2c([N+](=O)[O-])ccc3c2CCC3OP(=O)(N2CC2)N2CC2)c1)N1CC(F)(F)C1 (stereo not drawn) [Example 66] | 736 | – | < 10 | –
O=C(c1cccc(Oc2c([N+](=O)[O-])ccc3c2CCC3OP(=O)(N2CC2)N2CC2)c1)N1CC(F)(F)C1 (stereo not drawn) [Example 67] | 541 | < 10 | – | –
O=C1OCCN1c1cccc(Oc2c([N+](=O)[O-])ccc3c2CCC3OP(=O)(N2CC2)N2CC2)c1 (stereo not drawn) [Example 70] | 380 | – | – | < 10
O=C1OCCN1c1cccc(Oc2c([N+](=O)[O-])ccc3c2CCC3OP(=O)(N2CC2)N2CC2)c1 (stereo not drawn) [Example 71] | 31.9 | < 10 | – | –
O=C(NC1CC1)c1ccc(Oc2c([N+](=O)[O-])ccc3c2CCC3OP(=O)(N2CC2)N2CC2)cc1 (stereo not drawn) [Example 72] | 1390 | 50 to 100 | – | –
O=C(NC1CC1)c1ccc(Oc2c([N+](=O)[O-])ccc3c2CCC3OP(=O)(N2CC2)N2CC2)cc1 (stereo not drawn) [Example 73] | 943 | < 10 | – | –
Cn1c(-c2cccc(Oc3c([N+](=O)[O-])ccc4c3CCC4OP(=O)(N3CC3)N3CC3)c2)cccc1=O (stereo not drawn) [Example 74] | 1270 | ≥ 100 | – | –
Cn1c(-c2cccc(Oc3c([N+](=O)[O-])ccc4c3CCC4OP(=O)(N3CC3)N3CC3)c2)cccc1=O (stereo not drawn) [Example 75] | 2720 | 10 to 50 | – | –
O=[N+]([O-])c1ccc2c(c1Oc1ccc(-c3cnn(C4CC4)c3)cc1)CCC2OP(=O)(N1CC1)N1CC1 (stereo not drawn) [Example 78] | 1150 | ≥ 100 | – | –
O=[N+]([O-])c1ccc2c(c1Oc1ccc(-c3cnn(C4CC4)c3)cc1)CCC2OP(=O)(N1CC1)N1CC1 (stereo not drawn) [Example 79] | 1610 | 10 to 50 | – | –
O=c1ccccn1-c1cccc(Oc2c([N+](=O)[O-])ccc3c2CCC3OP(=O)(N2CC2)N2CC2)c1 (stereo not drawn) [Example 80] | 909 | – | < 10 | –
O=c1ccccn1-c1cccc(Oc2c([N+](=O)[O-])ccc3c2CCC3OP(=O)(N2CC2)N2CC2)c1 (stereo not drawn) [Example 81] | 829 | < 10 | – | –
O=[N+]([O-])c1ccc2c(c1Oc1cccc(-n3cc(F)cn3)c1)CCC2OP(=O)(N1CC1)N1CC1 (stereo not drawn) [Example 82] | 181 | – | < 10 | –
O=[N+]([O-])c1ccc2c(c1Oc1cccc(-n3cc(F)cn3)c1)CCC2OP(=O)(N1CC1)N1CC1 (stereo not drawn) [Example 83] | 1170 | < 10 | – | –
O=[N+]([O-])c1ccc2c(c1Oc1cccc(-c3ncccn3)c1)CCC2OP(=O)(N1CC1)N1CC1 (stereo not drawn) [Example 84] | 1020 | – | 10 to 50 | –
O=[N+]([O-])c1ccc2c(c1Oc1cccc(-c3ncccn3)c1)CCC2OP(=O)(N1CC1)N1CC1 (stereo not drawn) [Example 85] | 5280 | < 10 | – | –
O=[N+]([O-])c1ccc2c(c1Oc1cccc(-c3ncc(F)cn3)c1)CCC2OP(=O)(N1CC1)N1CC1 (stereo not drawn) [Example 86] | 1230 | – | 10 to 50 | –
O=[N+]([O-])c1ccc2c(c1Oc1cccc(-c3ncc(F)cn3)c1)CCC2OP(=O)(N1CC1)N1CC1 (stereo not drawn) [Example 87] | 5890 | 10 to 50 | – | –
Cc1nc(-c2cccc(Oc3c([N+](=O)[O-])ccc4c3CCC4OP(=O)(N3CC3)N3CC3)c2)no1 (stereo not drawn) [Example 88] | 3570 | 50 to 100 | – | –
Cc1nc(-c2cccc(Oc3c([N+](=O)[O-])ccc4c3CCC4OP(=O)(N3CC3)N3CC3)c2)no1 (stereo not drawn) [Example 89] | 6150 | 10 to 50 | – | –
O=[N+]([O-])c1ccc2c(c1Oc1cccc(-c3noc(C4CC4)n3)c1)CCC2OP(=O)(N1CC1)N1CC1 (stereo not drawn) [Example 90] | 9470 | – | ≥ 100 | –
O=[N+]([O-])c1ccc2c(c1Oc1cccc(-c3noc(C4CC4)n3)c1)CCC2OP(=O)(N1CC1)N1CC1 (stereo not drawn) [Example 91] | > 10000 | ≥ 100 | – | –
O=[N+]([O-])c1ccc2c(c1Oc1ccc(-c3ccc(F)cn3)c(F)c1)CCC2OP(=O)(N1CC1)N1CC1 (stereo not drawn) [Example 92] | 1420 | < 10 | – | –
Cn1c(=O)n(C)c2cc(Oc3c([N+](=O)[O-])ccc4c3CCC4OP(=O)(N3CC3)N3CC3)ccc21 (stereo not drawn) [Example 93] | 878 | ≥ 100 | – | –
Cn1c(=O)n(C)c2cc(Oc3c([N+](=O)[O-])ccc4c3CCC4OP(=O)(N3CC3)N3CC3)ccc21 (stereo not drawn) [Example 94] | 1450 | 10 to 50 | – | –
